According to paper PMC11945486, “TAS1R2/TAS1R3 Single-Nucleotide Polymorphisms Affect Sweet Taste Receptor Activation by Sweeteners: The SWEET Project” (Nutrients, 2025):
Each block holds one molecule with its values, some of them ahead of it. No end group written: not given here.

Biological target: T1, human TAS1R2-S212G/TAS1R3-WT (Homo sapiens, UniProt Q7RTX0+Q8TE23, S212G)
T1 construct: expressed in transfected cells; host or cells: HEK293T-Gα16gust44
T1 sequence (Q8TE23 20-839 S212G): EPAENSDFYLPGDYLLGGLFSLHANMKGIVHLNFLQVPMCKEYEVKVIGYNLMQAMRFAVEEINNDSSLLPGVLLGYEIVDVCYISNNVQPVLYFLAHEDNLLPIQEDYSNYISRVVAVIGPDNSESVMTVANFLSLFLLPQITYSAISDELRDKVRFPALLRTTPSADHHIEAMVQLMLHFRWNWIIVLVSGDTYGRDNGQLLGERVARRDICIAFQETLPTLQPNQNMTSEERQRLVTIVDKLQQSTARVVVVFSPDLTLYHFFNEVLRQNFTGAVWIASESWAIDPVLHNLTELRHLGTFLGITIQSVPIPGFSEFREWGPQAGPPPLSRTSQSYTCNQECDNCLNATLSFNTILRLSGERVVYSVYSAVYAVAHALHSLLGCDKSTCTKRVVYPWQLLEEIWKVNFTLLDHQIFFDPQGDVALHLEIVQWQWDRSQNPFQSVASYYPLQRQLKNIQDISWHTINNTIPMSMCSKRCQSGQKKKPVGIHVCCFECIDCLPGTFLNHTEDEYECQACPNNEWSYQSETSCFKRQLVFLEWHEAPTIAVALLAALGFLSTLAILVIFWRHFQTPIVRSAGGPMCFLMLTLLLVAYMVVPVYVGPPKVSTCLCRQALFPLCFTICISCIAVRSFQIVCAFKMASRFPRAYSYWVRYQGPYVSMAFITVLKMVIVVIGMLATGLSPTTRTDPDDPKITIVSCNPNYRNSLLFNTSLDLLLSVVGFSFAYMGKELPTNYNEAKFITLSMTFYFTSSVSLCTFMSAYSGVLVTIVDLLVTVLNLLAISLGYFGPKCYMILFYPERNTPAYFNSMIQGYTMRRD
T1 sequence (Q7RTX0 21-852): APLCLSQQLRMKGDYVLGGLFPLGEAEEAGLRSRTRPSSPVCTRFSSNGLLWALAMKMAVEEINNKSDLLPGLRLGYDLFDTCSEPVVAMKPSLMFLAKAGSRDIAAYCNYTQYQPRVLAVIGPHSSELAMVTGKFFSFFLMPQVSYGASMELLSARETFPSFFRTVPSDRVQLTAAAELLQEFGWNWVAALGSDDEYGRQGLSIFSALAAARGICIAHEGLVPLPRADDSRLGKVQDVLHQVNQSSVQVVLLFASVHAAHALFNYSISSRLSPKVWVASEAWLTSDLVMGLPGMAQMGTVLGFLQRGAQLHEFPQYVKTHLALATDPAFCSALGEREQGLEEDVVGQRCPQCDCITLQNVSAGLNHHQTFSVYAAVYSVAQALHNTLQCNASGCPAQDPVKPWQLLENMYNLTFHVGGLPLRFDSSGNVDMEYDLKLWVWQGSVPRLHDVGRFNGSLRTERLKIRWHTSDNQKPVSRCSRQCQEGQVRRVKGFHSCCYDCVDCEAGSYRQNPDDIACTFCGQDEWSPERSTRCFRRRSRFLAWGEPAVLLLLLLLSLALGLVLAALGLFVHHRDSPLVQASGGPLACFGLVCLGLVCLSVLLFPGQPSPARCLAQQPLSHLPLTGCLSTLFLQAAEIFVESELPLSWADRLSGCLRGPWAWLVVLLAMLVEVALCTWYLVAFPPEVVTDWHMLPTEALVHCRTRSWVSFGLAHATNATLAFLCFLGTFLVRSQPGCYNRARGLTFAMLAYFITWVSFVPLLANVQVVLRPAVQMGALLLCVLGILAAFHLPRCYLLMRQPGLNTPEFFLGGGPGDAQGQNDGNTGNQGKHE
Experiment: Calcium mobilisation assay, TAS1R2 variant S212G with TAS1R3-WT
Assay type: cell-based
Settings: for Max ΔF/F0: maximal signal amplitude
Description: The coding sequences for TAS1R2 and TAS1R3 were commercially synthesised, and the human codon was optimised for expression in human cells. The coding sequences of human TAS1R2 and TAS1R3 were subcloned and inserted into the mammalian expression vectors pcDNA6/myc-HisA and pcDNA4/myc-HisA (Invitrogen; Thermo Fisher Scientific; Illkirch, France) between the EcoRI and NotI restriction sites, generating the plasmids pcDNA6-TAS1R2 and pcDNA4-TAS1R3, respectively. To increase protein expression in mammalian cells, an upstream start codon was used, which was a sequence called MAX, corresponding to the QBI SP163 element also described in pcDNA4-HisMax (Invitrogen; Thermo Fisher Scientific; Illkirch, France). To measure the expression level of the receptor by immunohistochemistry, we used the FLAG sequence ([…]) in the C-terminal position, which encodes the FLAG tag epitope. SNP variants of TAS1R2 and TAS1R3 were constructed based on […], respectively, using site-directed mutagenesis (Genewiz; Leipzig, Germany).
The HEK293T cells were kindly provided by Jay P. Slack (Givaudan Flavors Corporation; Cincinnati, OH, USA). HEK293T cells stably transfected with Gα16gust44 [43, 67] were seeded in poly-D-lysine-coated clear-bottom black 96-well plates (0.35 × 10^5 cells/well) in high-glucose DMEM supplemented with 2 mM GlutaMAX, 10% dialysed foetal bovine serum with penicillin/streptomycin and G418 (400 μg/mL) at 37 °C and 6.3% CO2 in a humidified atmosphere as previously reported. […] As a negative control, HEK293T cells were mock-transfected with the empty expression vector. After a further 24 h of incubation, the HEK293T cells were washed with C1 buffer (130 mM NaCl, 5 mM KCl, 10 mM HEPES pH 7.4 and 2 mM CaCl2). The 96-well plates containing the cells were then stimulated with sweet-tasting compounds. […] Different concentration ranges were tested depending on the sweet compound injected. The Ca^2+ changes were expressed as fractional changes in fluorescent light intensity: ΔF/F = (F − F0)/F0, where F was the fluorescent light intensity at each point, and F0 was the value of emitted fluorescent light prior to stimulus application. To calculate dose–response relationships, the changes in fluorescence upon stimulus application were averaged, mock-subtracted and baseline-corrected. The dose–response data obtained were adjusted using a 4-parameter logistic equation. The half-maximal effective concentrations (EC50 values) and maximal signal amplitudes were calculated using SigmaPlot software (version 15.0) (Systat Software; San Jose, CA, USA).
For in vitro calcium mobilisation assay performed on hTAS1R2-SNPs, hTAS1R3-SNPs and mTAS1R3-I60T, 6 to 7 concentrations were tested for each sweet compound, plus buffer alone. All concentration–receptor combinations were measured in duplicate, and each experiment was repeated at least 4 times (8 wells/concentration). Results were expressed for each concentration as ΔF/F mean ± SEM and represented as dose–response curves.

Molecule: CC1=CC(=O)NS(=O)(=O)O1 [Acesulfame K, acesulfame K]
EC50: 438 ± 25 µM | R1 = Variant EC50/WT EC50: 0.6 | Max ΔF/F0: 0.28 ± 0.01

Molecule: O=S(=O)(O)NC1CCCCC1 [Cyclamate, cyclamate]
EC50: 1770 ± 44 µM

Molecule: C[C@H](CC[C@@H](O[C@@H]1O[C@H](CO[C@@H]2O[C@H](CO)[C@@H](O)[C@H](O)[C@H]2O)[C@@H](O)[C@H](O)[C@H]1O[C@@H]1O[C@H](CO)[C@@H](O)[C@H](O)[C@H]1O)C(C)(C)O)[C@H]1CC[C@@]2(C)[C@@H]3CC=C4[C@@H](CC[C@H](O[C@@H]5O[C@H](CO[C@@H]6O[C@H](CO)[C@@H](O)[C@H](O)[C@H]6O)[C@@H](O)[C@H](O)[C@H]5O)C4(C)C)[C@]3(C)[C@H](O)C[C@]12C [Mogroside V, mogroside V]
EC50: 21.2 ± 2.1 µM | R1 = Variant EC50/WT EC50: 1.2 | Max ΔF/F0: 1.32 ± 0.05

Molecule: COc1ccc(CCC(=O)c2c(O)cc(O[C@@H]3O[C@H](CO)[C@@H](O)[C@H](O)[C@H]3O[C@@H]3O[C@@H](C)[C@H](O)[C@@H](O)[C@H]3O)cc2O)cc1O [NHDC, neohesperidin dihydrochalcone]
EC50: 90.7 ± 8.1 µM | R1 = Variant EC50/WT EC50: 1.2 | Max ΔF/F0: 0.84 ± 0.03

Molecule: COC(=O)[C@H](Cc1ccccc1)NC(=O)[C@H](CC(=O)O)NCCC(C)(C)C [Neotame]
EC50: 0.99 ± 0.05 µM | R1 = Variant EC50/WT EC50: 1.2 | Max ΔF/F0: 0.63 ± 0.01

Molecule: OC[C@H]1O[C@H](O[C@]2(CCl)O[C@H](CCl)[C@@H](O)[C@@H]2O)[C@H](O)[C@@H](O)[C@H]1Cl [Sucralose]
EC50: 96 ± 6 µM | R1 = Variant EC50/WT EC50: 1.1 | Max ΔF/F0: 0.64 ± 0.02

Molecule: brazzein (QDKCKKVYENYPVSKCQLANQCNYDCKLDKHARSGECFYDEKRNLQCICDYCEY; ends and bridges not checked; cysteine pairing not given here; UniProt P56552 1-54, looked up) [sweet-tasting protein obtained by recombinant production using the yeast Pichia pastoris]
R1 = Variant EC50/WT EC50: 1.4 | Max ΔF/F0: 1.18 ± 0.02

B1: thaumatin (protein)
chain: ATFEIVNRCSYTVWAAASKGDAALDAGGRQLNSGESWTINVEPGTKGGKIWARTDCYFDDSGSGICKTGDCGGLLRCKRFGRPPTTLAEFSLNQYGKDYIDISNIKGFNVPMDFSPTTRGCRGVRCAADIVGQCPAKLKAPGGGCNDACTVFQTSEYCCTTGKCGPTEYSRFFKRLCPDAFSYVLDKPTTVTCPGSSNYRVTFCPTA
modifications: Eight disulfides
notes: sweet-tasting plant protein, E957
EC50: 6.1 ± 0.2 µM

Further lines, results first:

EC50: 22.9 ± 0.6 µM | R1 = Variant EC50/WT EC50: 1.3 | Max ΔF/F0: 1.30 ± 0.01
Molecule: C=C(C)[C@@H]1CC=C(/C=N/O)CC1 [Perillartine, perillartine]

EC50: 23.2 ± 1.1 µM | R1 = Variant EC50/WT EC50: 1.4 | Max ΔF/F0: 1.14 ± 0.02
Molecule: C=C1C[C@@]23CC[C@H]4[C@@](C)(CCC[C@@]4(C)C(=O)O[C@@H]4O[C@H](CO)[C@@H](O)[C@H](O[C@@H]5O[C@H](CO)[C@@H](O)[C@H](O)[C@H]5O)[C@H]4O[C@@H]4O[C@H](CO)[C@@H](O)[C@H](O)[C@H]4O)[C@@H]2CC[C@]1(O[C@@H]1O[C@H](CO)[C@@H](O)[C@H](O[C@@H]2O[C@H](CO)[C@@H](O)[C@H](O)[C@H]2O)[C@H]1O[C@@H]1O[C@H](CO)[C@@H](O)[C@H](O)[C@H]1O)C3 [Rebaudioside M, rebaudioside M]

R1 = Variant EC50/WT EC50: 0.8 | Max ΔF/F0: 0.6 ± 0.01
Molecule: thaumatin
